The source made the active and inactive calls. No cut-off for these calls is given here. Starred links: 1 amine or outer side, 2 acyl side, 3 side chain; linkers in the order of their positions; H or OH if unused. Non-standard residues stand in square brackets, D forms with d. Residues, ends and D or L forms follow the SMILES beside them. *: point of attachment. X1 = CC(=O)O[C@@]12[C@H](O*)[C@@H](C)[C@@]3(O)[C@@H](C=C(CO)C[C@]4(O)C(=O)C(C)=C[C@@H]34)[C@@H]1C2(C)C; 12Ado = NCCCCCCCCCCCC(=O)O; Morpholide = C1CN(*)CCO1; CO = O=C([*:1])[*:2]
Experiments:
LNCaP [1] = assay: Antiproliferative activity against human LNCAP cells at 40 uM incubated for 72 hrs by MTT assay relative to control; assay type: functional
CWR22R [2] = assay: Antiproliferative activity against human 22Rv1 cells at 40 uM incubated for 72 hrs by MTT assay relative to control; assay type: functional
DU-145 [3] = assay: Antiproliferative activity against human DU145 cells at 40 uM incubated for 72 hrs by MTT assay relative to control; assay type: functional
PC-3 [4] = assay: Antiproliferative activity against human PC3 cells at 40 uM incubated for 72 hrs by MTT assay relative to control; assay type: functional
LNCaP [5] = assay: Antiproliferative activity against human LNCAP cells incubated for 72 hrs by MTT assay; assay type: functional, cell-based
CWR22R [6] = assay: Antiproliferative activity against human 22Rv1 cells incubated for 72 hrs by MTT assay; assay type: functional, cell-based
DU-145 [7] = assay: Antiproliferative activity against human DU145 cells incubated for 72 hrs by MTT assay; assay type: functional, cell-based
PC-3 [8] = assay: Antiproliferative activity against human PC3 cells incubated for 72 hrs by MTT assay; assay type: functional, cell-based
[9] = molecular target: Protein kinase C alpha type (Homo sapiens) (UniProt P17252); assay: Displacement of [3H]PDBu from recombinant human PKCalpha expressed in baculovirus infected Sf9 insect cells incubated for 10 mins by liquid scintillation counting method
LNCaP [10] = assay: Antiproliferative activity against human LNCAP cells at 1 to 40 uM incubated for 72 hrs by MTT assay; assay type: functional, cell-based
CWR22R [11] = assay: Antiproliferative activity against human 22Rv1 cells at 1 to 40 uM incubated for 72 hrs by MTT assay; assay type: functional, cell-based
DU-145 [12] = assay: Antiproliferative activity against human DU145 cells at 1 to 40 uM incubated for 72 hrs by MTT assay; assay type: functional, cell-based
PC-3 [13] = assay: Antiproliferative activity against human PC3 cells at 1 to 40 uM incubated for 72 hrs by MTT assay; assay type: functional, cell-based
LNCaP [14] = assay: Cytotoxicity against human LNCAP cells assessed as effect on cell membrane incubated for 72 hrs by LDH assay; assay type: functional, cell-based
CWR22R [15] = assay: Cytotoxicity against human 22Rv1 cells assessed as effect on cell membrane incubated for 72 hrs by LDH assay; assay type: functional, cell-based
DU-145 [16] = assay: Cytotoxicity against human DU145 cells assessed as effect on cell membrane incubated for 72 hrs by LDH assay; assay type: functional, cell-based
PC-3 [17] = assay: Cytotoxicity against human PC3 cells assessed as effect on cell membrane incubated for 72 hrs by LDH assay; assay type: functional, cell-based
[18] = molecular target: T1, Protein kinase C (PKC) (Homo sapiens) (UniProt O94806+P41743+P17252+P05129+Q05655+P05771+Q05513+Q02156+P24723+Q15139+Q04759); assay: Activation of PKC in human 22Rv1 cells assessed as increase in ERK1/ERK2 phosphorylation at 20 uM incubated for 30 mins by Western blot analysis; assay type: cell-based; conditions: CWR22R
[19] = molecular target: T1, Protein kinase C (PKC) (Homo sapiens); assay: Activation of PKC in human DU145 cells assessed as increase in ERK1/ERK2 phosphorylation at 20 uM incubated for 30 mins by Western blot analysis; assay type: cell-based; conditions: DU-145
CWR22R [20] = assay: Up regulation of PCKalpha in human 22Rv1 cells at 20 uM incubated for 24 hrs by Western blot analysis; assay type: functional, cell-based
CWR22R [21] = assay: Up regulation of PCKalpha in human 22Rv1 cells incubated for 72 hrs by Western blot analysis; assay type: functional, cell-based
CWR22R [22] = assay: Up regulation of PCKdelta in human 22Rv1 cells incubated for 72 hrs by Western blot analysis; assay type: functional, cell-based
CWR22R [23] = assay: Up regulation of PSMA in human 22Rv1 cells incubated for 72 hrs by Western blot analysis; assay type: functional, cell-based
[24] = molecular target: T1, Protein kinase C (PKC) (Homo sapiens); assay: Activation of PKC in human 22Rv1 cells assessed as increase in ERK1/ERK2 phosphorylations at 10 nM incubated for 30 mins by Western blot analysis; assay type: cell-based; conditions: CWR22R
[25] = molecular target: T1, Protein kinase C (PKC) (Homo sapiens); assay: Activation of PKC in human DU145 cells assessed as increase in ERK1/ERK2 phosphorylation at 10 nM incubated for 30 mins by Western blot analysis; assay type: cell-based; conditions: DU-145
LNCaP [26] = assay: Antiproliferative activity against human LNCAP cells at 20 to 40 uM incubated for 72 hrs by MTT assay relative to control; assay type: functional
LNCaP [27] = assay: Antiproliferative activity against human LNCAP cells incubated for 72 hrs in presence of pan-PKC inhibitor Go6983 by MTT assay; assay type: functional, cell-based

| SMILES | Activity (LNCaP [1]) | Activity (CWR22R [2]) | Activity (PC-3 [4]) | [3H]PDBu displacement (active/not active) [9] | Activity (LNCaP [14]) | Activity (CWR22R [15]) | Activity (DU-145 [16]) | Activity (PC-3 [17]) | Activity [18] | Activity [19] | Activity (CWR22R [20]) | Activity (CWR22R [21]) | Activity (CWR22R [22]) | Activity (CWR22R [23]) | further results |
| --- | --- | --- | --- | --- | --- | --- | --- | --- | --- | --- | --- | --- | --- | --- | --- |
| C/C=C(/C)C(=O)O[C@H]1C(C)=C2[C@H]([C@@H]1OC(=O)CCCCCCC)[C@@](C)(OC(C)=O)C[C@H](OC(=O)CCCCCCCCCCCNC(=O)C[C@H](N)C(N)=O)[C@@]1(O)[C@H]2OC(=O)[C@@]1(C)O | 4% | 27% | 15% | – | – | – | – | – | – | – | – | – | – | – | Activity (DU-145 [3]): 20%; Activity (LNCaP [5]): Dose-dependent effect; Activity (CWR22R [6]): Dose-dependent effect; Activity (DU-145 [7]): Dose-dependent effect; Activity (PC-3 [8]): Dose-dependent effect |
| CC(=O)O[C@@]12[C@H](OC(=O)CCCCCCCCCCCNC(=O)C[C@H](N)C(C)C)[C@@H](C)[C@@]3(O)[C@@H](C=C(CO)C[C@]4(O)C(=O)C(C)=C[C@@H]34)[C@@H]1C2(C)C | – | – | – | Active | inactive | inactive | inactive | inactive | Active | Active | Active | inactive | inactive | inactive | Activity (LNCaP [10]): inactive; Activity (CWR22R [11]): inactive; Activity (DU-145 [12]): inactive; Activity (PC-3 [13]): inactive |
| CCCCCCCCCCCCCC(=O)O[C@@H]1[C@@H](C)[C@@]2(O)[C@@H](C=C(CO)C[C@]3(O)C(=O)C(C)=C[C@@H]23)[C@@H]2C(C)(C)[C@]12OC(C)=O | – | – | – | Active | – | – | – | – | – | – | – | – | – | – | Activity [24]: Active; Activity [25]: Active |
| CC(=O)O[C@@]12[C@H](OC(=O)CCCCCCCCCCCNC(=O)[C@@H](N)CC(C)C)[C@@H](C)[C@@]3(O)[C@@H](C=C(CO)C[C@]4(O)C(=O)C(C)=C[C@@H]34)[C@@H]1C2(C)C | 60% | 10% | 30% | Active | inactive | inactive | inactive | inactive | Active | Active | inactive | inactive | inactive | inactive | Activity (DU-145 [3]): 40% |
| CC(=O)O[C@@]12[C@H](OC(=O)CCCCCCCCCCCNC(=O)[C@H](CC(C)C)NC(=O)[C@H](CCC(N)=O)NC(=O)[C@H](CC(C)C)NC(=O)[C@H](CCCCN)NC(=O)[C@H](CO)NC(=O)[C@H](CO)NC(=O)[C@H](Cc3cnc[nH]3)NC(=O)N3CCOCC3)[C@@H](C)[C@@]3(O)[C@@H](C=C(CO)C[C@]4(O)C(=O)C(C)=C[C@@H]34)[C@@H]1C2(C)C ({Morpholide-CO}-HSSKLQL[12Ado]-X1) | – | – | – | inactive | inactive | inactive | inactive | inactive | Active | Active | – | – | – | – | Activity (LNCaP [26]): 32%; Activity (LNCaP [27]): inactive |
| C/C=C(/C)C(=O)O[C@H]1C(C)=C2[C@H]([C@@H]1OC(=O)CCCCCCC)[C@@](C)(OC(C)=O)C[C@H](OC(=O)CCCCCCCCCCCNC(=O)C[C@H](N)C(=O)N[C@@H](CCC(=O)N[C@@H](CCC(=O)N[C@@H](CCC(=O)N[C@@H](CCC(=O)O)C(=O)O)C(=O)O)C(=O)O)C(=O)O)[C@@]1(O)[C@H]2OC(=O)[C@@]1(C)O [MIPSAGARGIN] | 35% | 40% | 32% | – | – | – | – | – | – | – | – | – | – | – | – |
| CC(=O)O[C@@]12[C@H](OC(=O)CCCCCCCCCCCNC(=O)C[C@H](N)C(=O)N[C@@H](CCC(=O)N[C@@H](CCC(=O)N[C@@H](CCC(=O)N[C@@H](CCC(=O)O)C(=O)O)C(=O)O)C(=O)O)C(=O)O)[C@@H](C)[C@@]3(O)[C@@H](C=C(CO)C[C@]4(O)C(=O)C(C)=C[C@@H]34)[C@@H]1C2(C)C | – | – | 10% | Active | inactive | inactive | inactive | inactive | inactive | Active | Active | inactive | inactive | inactive | – |
| CC(=O)NCC(=O)N[C@@H](CCCCN)C(=O)N[C@@H](C)C(=O)N[C@@H](Cc1ccccc1)C(=O)N[C@@H](CCCNC(=N)N)C(=O)N[C@@H](CCCNC(=N)N)C(=O)N[C@@H](CC(C)C)C(=O)NCCCCCCCCCCCC(=O)O[C@@H]1[C@@H](C)[C@@]2(O)[C@@H](C=C(CO)C[C@]3(O)C(=O)C(C)=C[C@@H]23)[C@@H]2C(C)(C)[C@]12OC(C)=O (Ac-GKAFRRL[12Ado]-X1) | – | 25% | 15% | Active | inactive | inactive | inactive | inactive | Active | Active | inactive | inactive | inactive | inactive | – |
